{
  "source": "patent EP0114887B1",
  "about": "“POLYPEPTIDE” (LA JOLLA CANCER RESEARCH FOUNDATION, priority 1982, dated 1990)",
  "key": {"cells [1]": {"test_system": "cells", "test": "Cell attachment to peptide-coupled Sepharose (agarose) beads", "type": "cell-based", "settings": "coupled to cyanogen bromide-activated agarose beads (Sepharose), sterilized by autoclaving", "procedure": "The four synthetic peptides as well as the 11.5-kDal fragment and a 200-kDal fragment of fibronectin were coupled to cyanogen bromide-activated Sepharose-6MB beads (Pharmacia) according to the manufacturer's instructions. The peptides were first reduced as described above and used at 8 mg of peptide per ml of Sepharose. Albumin-coated beads and beads derivatized with ethanolamine were used as controls.\nThe cell attachment assays were performed as described (Ruoslahti, E. et al (1981) Methods Enzymology82,803-831) with human fibroblasts or normal rat kidney (NRK) cells. Briefly, 100 I of a single- cell suspension containing […] was placed in a flat-bottom microtiter well that had been coated with one of the peptides or with fibronectin. After 1 h at 37°C, unattached cells were washed away and attached cells were fixed and stained for counting. In some experiments soluble peptide was added to the medium to determine if its presence during the attachment would have an inhibitory effect. Cell attachment to the agarose beads was performed on a layer of beads in the bottom of a round-bottom microtiter well exactly as described above."}, "cells [2]": {"test_system": "cells", "test": "Cell-attachment activity of the synthetic fragment compared with the entire polypeptide", "type": "cell-based"}},
  "note": "Peptide text beside a SMILES is read from it.",
  "data": [
    {"compound": "CC[C@H](C)[C@H](NC(=O)[C@H](CO)NC(=O)[C@@H](NC(=O)[C@@H]1CCCN1C(=O)[C@H](CCCCN)NC(=O)[C@H](CO)NC(=O)[C@H](CO)NC(=O)[C@H](C)NC(=O)[C@@H]1CCCN1C(=O)[C@H](CO)NC(=O)[C@H](CC(=O)O)NC(=O)CNC(=O)[C@H](CCCNC(=N)N)NC(=O)CNC(=O)[C@@H](NC(=O)[C@@H](NC(=O)[C@H](C)NC(=O)[C@@H](N)Cc1ccc(O)cc1)C(C)C)[C@@H](C)O)[C@@H](C)CC)C(=O)N[C@@H](CC(N)=O)C(=O)N[C@@H](Cc1ccc(O)cc1)C(=O)N[C@@H](CCCNC(=N)N)C(=O)N[C@H](C(=O)N[C@@H](CCC(=O)O)C(=O)N[C@H](C(=O)N[C@@H](CC(=O)O)C(=O)N[C@@H](CCCCN)C(=O)N1CCC[C@H]1C(=O)N[C@@H](CO)C(=O)N[C@@H](CCC(N)=O)C(=O)N[C@@H](CCSC)C(=O)O)[C@@H](C)CC)[C@@H](C)O", "note": "[30-residue fragment, H-Tyr-Ala-Val-Thr-Gly-Arg-Gly-Asp-Ser-Pro-Ala-Ser-Ser-Lys-Pro-IIe-Ser-IIe-Asn-Tyr-Arg-Thr-Glu-IIe-Asp-Lys-Pro-Ser-Gln-Met-OH] (H-YAVTGRGDSPASSKPISINYRTEIDKPSQM-OH)", "values": [
      {"measurement": "attachment of cells to beads", "setting": "cells [1]", "result": "induces attachment of cells to the beads"},
      {"measurement": "cell-attachment activity compared with the entire sequence", "setting": "cells [2]", "result": "the same activity as the entire sequence"}
    ]}
  ]
}
